From patent US20170296616A1, “METHODS OF TREATING DEPRESSION USING NMDA MODULATORS” (Naurex, Inc., priority 2014, published 2017)
Residues, ends and D or L forms follow the SMILES beside them.

Legend:
[1] = tested on: patients suffering with refractory depression; conditions: cited from earlier work; for change in Hamilton Depression Rating Score: patients with refractory depression; for side effects: reported for the NMDAR antagonists
[2] = tested on: subjects with MDD that had responded inadequately to another antidepressant agent; test: Repeat dose study of adjunctive GLYX-13 in human subjects (randomized withdrawal design); assay type: in vivo; conditions: for reduction of CGI-I score: baseline 4.3-4.6
Protocol: A repeat dose study was conducted on human subjects using adjunctive dosing (patients were currently taking another antidepressant medication). Dose levels of 5 mg/kg and 10 mg/kg were used with weekly or biweekly dose during an initial, stabilization period, as shown in FIGS. 7A and 7B (showing typical design of randomized withdrawal maintenance study). The disposition of the subjects, as indicated in FIGS. 7A and 7B was 144 nonresponders and […], where of the responders (70 patients assigned to weekly dosing, 36 patients assigned to biweekly dosing, 55 patients randomized to placebo). […] The study was blinded to third party raters (HDRS-17) and to clinicians of the treatment group (CGI-S).
Methods. GLYX-13 was administered over 12 weeks to subjects who had responded inadequately to another antidepressant agent. Subjects continued taking the other antidepressant during the entire course of the study. The study was divided into 3 parts. During the first 6 weeks, subjects were randomized to receive GLYX-13 at 5 mg/kg IV or 10 mg/kg IV. Subjects returned to the clinic weekly. If subjects had reached clinical response (HDRS-17 reduced ≧50% from baseline) to GLYX-13 administered the previous week, placebo was administered weekly until relapse (HDRS-17 reduced <50% from baseline). At the 6th week of evaluation, subjects who had achieved response to GLYX-13 at some visit were assigned to weekly or biweekly dosing based on time to relapse during placebo administration and randomized to continue receiving GLYX-13 or placebo (randomized withdrawal) for a subsequent 6 weeks of dosing. At the end of the randomized withdrawal period, subjects received placebo injections for 4 weeks. Subjects were blind to the treatments. Third party evaluators blind to treatment and protocol were utilized. Treatment dose and interval were calculated by an interactive web-based response system based on a mathematical algorithm; site personnel were blinded to treatment.

[3] = cited from earlier work
[4] = tested on: long-term potentiation (LTP); test: Long-term potentiation (LTP) after single or multiple bi-weekly doses (FIG. 3)
[5] = end of randomized withdrawal period, biweekly doses

C[C@@H]([C@@H](O)c1ccc(O)cc1)N1CCC(O)(c2ccccc2)CC1 [CPC-101,606]
change in Hamilton Depression Rating Score [1]: significant reductions
side effects [1]: reportedly severe

C[C@@H](O)[C@H](N)C(=O)N1CCC[C@H]1C(=O)N1CCC[C@H]1C(=O)N[C@H](C(N)=O)[C@@H](C)O [GLYX-13] (H-TPPT-NH2)
improvements on HDRS scale during the rest period (randomized withdrawal) ([2]; FIG. 1, compared with the induction (stabilization) period): generally maintained
improvements on Bech-6 scale during the rest period (randomized withdrawal) ([2]; FIG. 4, compared with the induction (stabilization) period): generally maintained
improvements on CGI-S scale during the rest period ([2]; FIG. 5, Week 7 and Week 13): generally maintained
subjects that relapsed more slowly ([2]; assigned to biweekly dosing in the randomized withdrawal period): 33%
responders that relapsed within 2 weeks following cessation of GLYX-13 ([2]; assigned to weekly dosing in the randomized withdrawal period): Approximately 67%
responders that relapsed quickly during early treatment ([2]; early treatment): About two-thirds
responders that relapsed slowly, even during early treatment ([2]; early treatment): About one-third
reduction of CGI-I score ([2]; end of randomized withdrawal period, 5 mg/kg IV weekly dose group): 2.5 ± 0.14
percent of subjects that achieved remission ([2]; end of randomized withdrawal period, 5 mg/kg weekly group vs biweekly dose groups): not statistically different from the biweekly dose groups
reduction of CGI-I score ([2]; end of randomized withdrawal period, 10 mg/kg IV group): 1.6±0.15
subjects that reached remission (HDRS score <=7) ([2]; end of randomized withdrawal period, 10 mg/kg weekly): 42%
subjects that achieved remission (HDRS score <=7) [2, 5]: 45%
subjects that achieved response [2, 5]: 65%
reduction of CGI-I score ([2]; end of randomized withdrawal period, biweekly groups): 2.5±0.12
HDRS-17 score in responders ([2]; following 6 weeks of dosing, baseline 23.5±0.34, mean±S.E.M.): 10.3±0.65
time after withdrawal of GLYX-13 without return of HDRS-17 score toward baseline ([2]; following 6 weeks of dosing, placebo thereafter): up to 10 weeks
efficacy following forced relapse ([2]; repeated crossover GLYX-13 / placebo (FIG. 6)): Efficacy was reestablished following forced relapse
side effects with repeated dosing ([2]; repeated dosing): without significant side effect
tolerance with repeated dosing ([2]; repeated dosing): no tolerance apparent
ultimate responders that showed response after one dose ([2]; stabilization phase, 5 or 10 mg/kg, after one dose): ~65%
ultimate responders that showed response after three doses ([2]; stabilization phase, after three doses): ~85%
ultimate responders that showed response after two doses ([2]; stabilization phase, after two doses): ~72%
psychotomimetic side effects ([3]; compared with other drugs that target the NMDA receptor): lack the pyschotomimetic side effects
antidepressant activity ([3]; in vivo): rapid-acting, robust, and sustained antidepressant activity
effect on long-term potentiation (LTP) ([4]; 24 hours and one week following a single dose): enhances long-term potentiation
effect on long-term potentiation (LTP) ([4]; following multiple bi-weekly doses): persistently enhances LTP

CNC1(c2ccccc2Cl)CCCCC1=O (stereo not drawn) [ketamine]
change in Hamilton Depression Rating Score [1]: significant reductions
side effects [1]: reportedly severe
